Experimental data as given in patent US20010056085A1, “Methods of using vesicant drug formulations” (priority 1996, published 2001).
Several values for one entry are separate records, joined by “and”; a condition that tells them apart may be missing. Equal values may be shown once. Read-outs that look alike come from different tables or passages of the source.

Assay: Half-life of ADR destruction by UVA light in the presence of test compounds (decrease in absorbance at 480 nm)
Assay type: physicochemical
[1] = UVA light, 100 μM test compound alone
[2] = UVA light, 100 μM test compound with 0.5 μM riboflavin

O=C(O)C=Cc1ccc(O)cc1 [4-Hydroxy Cinnamic Acid]
Half-Life of ADR Destruction, 100 μM Test Compound [1]: 50.2 min

c1ccc(-c2cc3ccccc3[nH]2)cc1 [2-Phenyl Indole]
Half-Life of ADR Destruction, 100 μM Test Compound and 0.5 μM Riboflavin [2]: 14.3 min

COc1cccc(C(=O)O)c1 [3-Methoxy Benzoic Acid]
Half-Life of ADR Destruction, 100 μM Test Compound [1]: 43.0 min

O=C(O)CCc1ccc(O)cc1 [3-(4-Hydroxyphenyl) Propionic Acid]
Half-Life of ADR Destruction, 100 μM Test Compound and 0.5 μM Riboflavin [2]: 75.3 min

OCc1ccc2ccccc2c1 [2-Naphthalenemethanol]
Half-Life of ADR Destruction, 100 μM Test Compound and 0.5 μM Riboflavin [2]: 50.2 min

Nc1ccc(C(=O)NCC(=O)O)cc1 [p-Amino hippuric acid]
Half-Life of ADR Destruction, 100 μM Test Compound [1]: 50.2 min
Half-Life of ADR Destruction, 100 μM Test Compound and 0.5 μM Riboflavin [2]: 11.1 min

CC(C(=O)O)c1ccc(-c2ccccc2)cc1 (stereo not drawn) [4-Phenyl α-Methyl-Phenylacetic Acid]
Half-Life of ADR Destruction, 100 μM Test Compound and 0.5 μM Riboflavin [2]: 27.4 min

Nc1cccc2c1Cc1ccccc1C2 [1-Amino-9,10-dihydroanthracene]
Half-Life of ADR Destruction, 100 μM Test Compound [1]: 75.3 min
Half-Life of ADR Destruction, 100 μM Test Compound and 0.5 μM Riboflavin [2]: 75.3 min

O=C(c1ccccc1)c1ccncc1 [4-Benzoylpyridine]
Half-Life of ADR Destruction, 100 μM Test Compound [1]: 17.2 ± 1.9 min
Half-Life of ADR Destruction, 100 μM Test Compound and 0.5 μM Riboflavin [2]: 11.6 min

O=C(O)c1ccc([N+](=O)[O-])cc1 [4-Nitro Benzoic Acid]
Half-Life of ADR Destruction, 100 μM Test Compound and 0.5 μM Riboflavin [2]: 50.2 min

O=C(c1ccccc1)c1ccc2n1CCC2C(=O)O (stereo not shown) [Ketorlac, reference compound]
Half-Life of ADR Destruction, 100 μM Test Compound: 4.07 min
Half-Life of ADR Destruction, 100 μM Test Compound and 0.5 μM Riboflavin: 3.81 min

O=C(O)Cc1ccc2ccccc2c1 [Naphthalene-2-acetic acid]
Half-Life of ADR Destruction, 100 μM Test Compound [1]: 75.3 min
Half-Life of ADR Destruction, 100 μM Test Compound and 0.5 μM Riboflavin [2]: 30.1 min

CC=Cc1ccccc1O [2-Propenyl Phenol]
Half-Life of ADR Destruction, 100 μM Test Compound: 50.2 min

OCC=Cc1ccccc1 [Cinnamyl Alcohol]
Half-Life of ADR Destruction, 100 μM Test Compound [1]: 43.0 min

O=C(c1ccccc1)c1ccccn1 [2-Benzoylpyridine]
Half-Life of ADR Destruction, 100 μM Test Compound [1]: 100.3 min
Half-Life of ADR Destruction, 100 μM Test Compound and 0.5 μM Riboflavin [2]: 100.3 min

Oc1ccc2[nH]ccc2c1 [5-Hydroxy Indole]
Half-Life of ADR Destruction, 100 μM Test Compound and 0.5 μM Riboflavin [2]: 150.5 min and 75.3 min

O=C(O)/C=C/c1c[nH]c2ccccc12 [trans-3-Indoleacrylic acid]
Half-Life of ADR Destruction, 100 μM Test Compound and 0.5 μM Riboflavin [2]: 6.84 min

COc1ccc(O)cc1 [4-Methoxy Phenol]
Half-Life of ADR Destruction, 100 μM Test Compound [1]: 50.2 min
Half-Life of ADR Destruction, 100 μM Test Compound and 0.5 μM Riboflavin [2]: 43.0 min

Cc1c(N)cccc1CO [3-Amino-2-Methyl Benzyl Alcohol]
Half-Life of ADR Destruction, 100 μM Test Compound and 0.5 μM Riboflavin [2]: 33.5 min

OCCCCc1ccccc1 [4-Phenyl-1-Butanol]
Half-Life of ADR Destruction, 100 μM Test Compound [1]: 43.0 min
Half-Life of ADR Destruction, 100 μM Test Compound and 0.5 μM Riboflavin [2]: 43.0 min

Cn1ccc2ccccc21 [N-ω-methyl-indole]
Half-Life of ADR Destruction, 100 μM Test Compound and 0.5 μM Riboflavin [2]: 20.1 min

Nc1ccc(CCC(=O)O)cc1 [3-(4-Aminophenyl) Propionic Acid]
Half-Life of ADR Destruction, 100 μM Test Compound and 0.5 μM Riboflavin [2]: 6.41 min

O=C(/C=C/c1ccc(O)c(O)c1)O[C@@H]1C[C@](O)(C(=O)O)C[C@@H](O)[C@H]1O [3-Caffeolyquinic Acid]
Half-Life of ADR Destruction, 100 μM Test Compound [1]: 100.3 min
Half-Life of ADR Destruction, 100 μM Test Compound and 0.5 μM Riboflavin [2]: 100.3 min

CC(=O)Oc1ccc2ccccc2c1 [2-Naphthyl acetate]
Half-Life of ADR Destruction, 100 μM Test Compound (UVA light, test compound alone, +4% DMSO): 43.0 min
Half-Life of ADR Destruction, 100 μM Test Compound and 0.5 μM Riboflavin (UVA light, with 0.5 μM riboflavin, +4% DMSO): 33.5 min

O=C(O)CCOc1cccc2ccccc12 [3-(1-naphthyloxy) propionic acid]
Half-Life of ADR Destruction, 100 μM Test Compound [1]: 75.3 min

COc1ccc(C=C(C)C=O)cc1 [4-Methoxy-α-Methyl Cinnamaldehyde]
Half-Life of ADR Destruction, 100 μM Test Compound and 0.5 μM Riboflavin [2]: 20.1 min

O=C(O)C1c2ccccc2-c2ccccc21 [9-Fluorene Carboxylic acid]
Half-Life of ADR Destruction, 100 μM Test Compound [1]: 50.2 min
Half-Life of ADR Destruction, 100 μM Test Compound and 0.5 μM Riboflavin [2]: 43.0 min

O=S(=O)(O)c1ccccc1 [Benzenesulfonic acid]
Half-Life of ADR Destruction, 100 μM Test Compound and 0.5 μM Riboflavin [2]: 50.2 min

COc1ccc2ccccc2c1CO [2-Methoxy-1-naphthalenemethanol]
Half-Life of ADR Destruction, 100 μM Test Compound and 0.5 μM Riboflavin [2]: 4.43 min

CC(=O)c1ccc2cc(C)ccc2c1 [6-Methyl-2-acetonaphthone]
Half-Life of ADR Destruction, 100 μM Test Compound [1]: 8.85 min
Half-Life of ADR Destruction, 100 μM Test Compound and 0.5 μM Riboflavin [2]: 7.53 min

NCCc1ccc(O)cc1 [4-Hydroxy Phenethylamine (Tyramine), 4-Hydroxy Phenethylamine]
Half-Life of ADR Destruction, 100 μM Test Compound and 0.5 μM Riboflavin [2]: 33.5 min

O=Cc1c[nH]c2ccccc12 [Indole-3-carboxaldehyde]
Half-Life of ADR Destruction, 100 μM Test Compound and 0.5 μM Riboflavin [2]: 30.1 min

COc1ccc(C(C)=O)c(O)c1 [2′-Hydroxy-4-methoxyaceotphenone]
Half-Life of ADR Destruction, 100 μM Test Compound: 75.3 min

O=S(=O)(O)c1cc(O)ccc1O [2,5-Dihydroxy Benzenesulfonic acid]
Half-Life of ADR Destruction, 100 μM Test Compound and 0.5 μM Riboflavin [2]: 25.1 min

Cc1c[nH]c(C)c1 [2,4-Dimethyl Pyrrole]
Half-Life of ADR Destruction, 100 μM Test Compound and 0.5 μM Riboflavin [2]: 20.1 min

Cc1cccc(CO)c1N [2-Amino-3-Methyl Benzyl Alcohol]
Half-Life of ADR Destruction, 100 μM Test Compound and 0.5 μM Riboflavin [2]: 18.8 min

O=C(O)c1ccc2ccccc2c1 [Naphthalene-2-carboxylic acid]
Half-Life of ADR Destruction, 100 μM Test Compound [1]: 50.2 min
Half-Life of ADR Destruction, 100 μM Test Compound and 0.5 μM Riboflavin [2]: 43.0 min

Nc1ccc(S(=O)(=O)O)cc1 [4-Amino Benzenesulfonic acid]
Half-Life of ADR Destruction, 100 μM Test Compound and 0.5 μM Riboflavin [2]: 18.8 min

CC(C(=O)O)c1ccc2c(c1)[nH]c1ccc(Cl)cc12 (stereo not drawn) [6-Chlro-α-methyl-carbazole-2-acetic acid, reference compound]
Half-Life of ADR Destruction, 100 μM Test Compound and 0.5 μM Riboflavin [2]: 25.6 ± 11.2 min

COc1ccc2cc(C(C)=O)ccc2c1 [6-Methoxy-2-acetonaphthone]
Half-Life of ADR Destruction, 100 μM Test Compound [1]: 15.8 min

COc1ccc2cc(CCC(C)=O)ccc2c1 [Nabumetone, 4-(6-Methoxy-2-naphthyl)-butan-2-one, reference compound]
Half-Life of ADR Destruction, 100 μM Test Compound [1]: 27.4 min
Half-Life of ADR Destruction, 100 μM Test Compound and 0.5 μM Riboflavin [2]: 8.6 min
Half-Life of ADR Destruction, 100 μM Test Compound and 0.5 μM Riboflavin (UVA light, 100 μM test compound with 0.5 μM riboflavin, listed as 4-(6-Methoxy-2-naphthyl)-butan-2-one (Nabumetone)): 8.60 min

O=C1c2c(O)cccc2Cc2cccc(O)c21 [1,8-Dihydroxyanthrone]
Half-Life of ADR Destruction, 100 μM Test Compound [1]: 27.4 min
Half-Life of ADR Destruction, 100 μM Test Compound and 0.5 μM Riboflavin [2]: 30.1 min

Nc1ccc(OCc2ccccc2)cc1 [4-Benzyloxyaniline]
Half-Life of ADR Destruction, 100 μM Test Compound [1]: 100.3 min
Half-Life of ADR Destruction, 100 μM Test Compound and 0.5 μM Riboflavin [2]: 100.3 min

COc1ccc2cc(CC(=O)O)ccc2c1 [6-Methoxynaphthalene-2-acetic acid]
Half-Life of ADR Destruction, 100 μM Test Compound [1]: 17.7 min
Half-Life of ADR Destruction, 100 μM Test Compound and 0.5 μM Riboflavin [2]: 5.38 min

N[C@@H](Cc1c[nH]c2ccc(O)cc12)C(=O)O [5-Hydroxy-tryptophan]
Half-Life of ADR Destruction, 100 μM Test Compound and 0.5 μM Riboflavin [2]: 301.0 min

Nc1ccc(C(=O)c2ccc(N)cc2)cc1 [4,4′-Diamino-benzophenone]
Half-Life of ADR Destruction, 100 μM Test Compound and 0.5 μM Riboflavin [2]: 27.4 min
